Assay results as given in patent US4970153A, “Method of producing acid urease and the use of the urease” (Nagase & Co., Ltd., priority 1987, dated 1990).
Read-outs that look alike come from different tables or passages of the source.

Key:
[1] = biological target: T1, acid-urease obtained by culturing Lactobacillus fermentum TK 1214 (Limosilactobacillus fermentum, UniProt P26929); test: Substrate specificity of acid urease (colorimetric assay of ammonia formed); assay type: biochemical; details: substance used as substrate of acid urease
T1 sequence (P26929 1-573): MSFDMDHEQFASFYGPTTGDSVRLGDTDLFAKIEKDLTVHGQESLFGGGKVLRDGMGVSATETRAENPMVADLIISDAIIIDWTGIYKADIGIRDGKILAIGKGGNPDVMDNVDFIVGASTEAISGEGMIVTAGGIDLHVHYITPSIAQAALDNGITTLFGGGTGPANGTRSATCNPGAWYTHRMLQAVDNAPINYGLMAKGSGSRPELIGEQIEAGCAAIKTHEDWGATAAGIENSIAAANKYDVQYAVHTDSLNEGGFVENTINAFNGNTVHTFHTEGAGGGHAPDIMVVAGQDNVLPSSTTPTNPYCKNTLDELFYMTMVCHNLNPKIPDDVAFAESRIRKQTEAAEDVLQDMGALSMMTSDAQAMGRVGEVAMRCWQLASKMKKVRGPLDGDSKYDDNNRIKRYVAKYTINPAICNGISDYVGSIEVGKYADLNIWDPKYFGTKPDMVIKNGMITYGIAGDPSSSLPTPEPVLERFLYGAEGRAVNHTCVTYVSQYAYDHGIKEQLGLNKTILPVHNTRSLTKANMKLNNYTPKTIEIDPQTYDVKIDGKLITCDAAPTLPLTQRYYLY
T1 sequence (P26930 1-124 partner): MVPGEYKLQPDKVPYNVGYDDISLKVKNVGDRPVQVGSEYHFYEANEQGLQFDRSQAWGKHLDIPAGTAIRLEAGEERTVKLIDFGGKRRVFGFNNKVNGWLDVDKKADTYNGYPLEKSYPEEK
T1 sequence (P26931 1-100 partner): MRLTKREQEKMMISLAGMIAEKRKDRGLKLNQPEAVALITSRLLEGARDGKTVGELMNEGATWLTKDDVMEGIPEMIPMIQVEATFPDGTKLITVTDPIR
Description: (2) Substrate specificity:
(§1) by Colorimetric assay of ammonia formed by reaction with urea.
(§2) 0.1M acetate buffer (pH 4.0): 0.6 ml
(§3) React at 37° C. for 10 minutes, add 0.2 ml of 1.0N H2 SO4 and stop the reaction. Take out a part of reaction solution and give coloring by Indophenol reagent. Measure the absorbance at 630 nm, and determine quantity of decomposed urea by assaying formed ammonia.
(§4) 1 unit activity (I.U.) of acid-urease is quantity of enzyme which decomposes 1 μmole of urea at 37° C., pH 4.0 for one minute.

[2] = biological target: T1, acid-urease obtained by culturing Lactobacillus fermentum TK 1214; test: Inhibition and activation of acid urease by additives; assay type: biochemical
Description: (5) Inhibition and activation:
as §1, §2, §3, §4

[3] = biological target: T1, acid-urease obtained by culturing Lactobacillus fermentum TK 1214; test: Stabilization of acid urease by additives (treated at 65° C. for 10 minutes); assay type: biochemical; details: additive 1 mM, not added: 80
Description: (6) Stabilization (treated at 65° C. for 10 minutes):
as §1, §3

[4] = biological target: acid urease from Lactobacillus fermentum TK 1214 (Limosilactobacillus fermentum, UniProt P26929)
[5] = biological target: neutral urease from sword beans

Compound | relevant activity (%) [1] [%] | Relative activity (%) after heat treatment [3] [%] | further results
C=CCNC(N)=O [Allylurea] | 0 | – | –
O=C(NO)c1ccccc1 [Benzohydroxamic acid] | 0 | – | Relative activity (%) ([2]; additive 0.5 mM): 50%
CCCCCCCC(=O)NO [Caprilohydroxamic acid] | 0 | – | Relative activity (%) ([2]; additive 0.04 mM): 50%
N[C@@H](CS)C(=O)O [Cysteine] | – | 100 | Relative activity (%) ([2]; additive 1 mM): 100%
O[C@H](CS)[C@@H](O)CS [Dithioerithritol] | – | 100 | –
O[C@H](CS)[C@H](O)CS [Dithiothreitol] | – | 100 | –
O=C(O)CN(CCN(CC(=O)O)CC(=O)O)CC(=O)O [EDTA-4Na] | – | 100 | –
CCO [Ethanol] | – | – | Relative activity (%) [2]: 50%; Ki (inhibitor constant) value against ethanol [4]: about 40%; Ki (inhibitor constant) value against ethanol [5]: about 9%
N[C@@H](CCC(=O)N[C@@H](CS)C(=O)NCC(=O)O)C(=O)O [Glutathione] | – | 100 | Relative activity (%) [2]: 100%
NO [Hydroxylamine] | 0 | – | –
NC(N)=S [Thiourea] | 0 | – | –
O=C([O-])c1cc[c]([Hg][Cl])cc1 [p-Chloromercuricbenzoate] | – | – | Relative activity (%) ([2]; additive 0.05 mM): 50%

Second part, led by results:

relevant activity (%) [1] [%] | Relative activity (%) after heat treatment [3] [%] | Compound | further results
0 | – | CCNC(N)=O [Ethylurea] | –
0 | – | NC(=O)NO [Hydroxyurea] | –
– | 100 | OCCS [Mercapto ethanol] | Relative activity (%) ([2]; additive 1 mM): 100%
0 | – | CNC(N)=O [Methylurea] | –
0 | – | O=C(NO)c1cccnc1 [Nicotinhydroxamic acid] | Relative activity (%) ([2]; additive 0.5 mM): 50%
100 | – | NC(N)=O [Urea] | –
